Measured values as given in ChEMBL document CHEMBL1201862, “PubChem BioAssay data set” (2004).
Calls of active or inactive are those of the source.

Experiments:
[1] = test system: HEK293; assay: SAR Analysis of small molecule inhibitors of T-cell specific antigen receptor-induced NF-kB activation in a HEK-293T cell line using a luminescence assay - Set 2. [Related pubchem assays (depositor defined):AID435003, AID435012, AID489026]; format: functional, cell-based; details: Homo sapiens
[2] = reduction of Shn3 3'UTR-driven luciferase in osteoblasts – cell-based, Clone20 osteoblasts, firefly luciferase, cherry-picked, dose response (AID 624132); format: functional;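 note: firefly luciferase luminescence from reporter carrying the Shn3 3'UTR in osteoblasts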
[3] = target: Heat shock protein HSP 90-alpha (Homo sapiens, UniProt P07900); format: functional, organism-based
[4] = target: T1, Exodeoxyribonuclease V (Escherichia coli (strain K12), UniProt P04993+P07648+P08394); assay: RecBCD inhibition via phage-restricted bacterial growth – absorbance, V66 E. coli, mutant T4 phage, counter-screen for AddAB inhibitor project, dose response (AID 492957); format: functional, cell-based, Escherichia coli str. K-12 substr. MG1655
T1 sequence (P04993 whole entry): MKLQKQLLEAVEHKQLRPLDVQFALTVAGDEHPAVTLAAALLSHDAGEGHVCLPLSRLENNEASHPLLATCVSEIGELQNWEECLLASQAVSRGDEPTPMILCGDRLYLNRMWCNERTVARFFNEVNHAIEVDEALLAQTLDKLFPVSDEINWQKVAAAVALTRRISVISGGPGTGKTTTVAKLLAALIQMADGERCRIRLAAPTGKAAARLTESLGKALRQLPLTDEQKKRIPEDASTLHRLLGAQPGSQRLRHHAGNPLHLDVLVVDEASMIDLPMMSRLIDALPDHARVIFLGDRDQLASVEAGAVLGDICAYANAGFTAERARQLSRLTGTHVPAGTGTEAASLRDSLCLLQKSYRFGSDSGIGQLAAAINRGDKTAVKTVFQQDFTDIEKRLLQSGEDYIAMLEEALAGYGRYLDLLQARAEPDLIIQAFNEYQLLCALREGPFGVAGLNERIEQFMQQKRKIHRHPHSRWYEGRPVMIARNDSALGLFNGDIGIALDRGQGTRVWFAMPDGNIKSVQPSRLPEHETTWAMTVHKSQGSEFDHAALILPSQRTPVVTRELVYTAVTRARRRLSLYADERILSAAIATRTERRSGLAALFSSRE
T1 sequence (P07648 whole entry): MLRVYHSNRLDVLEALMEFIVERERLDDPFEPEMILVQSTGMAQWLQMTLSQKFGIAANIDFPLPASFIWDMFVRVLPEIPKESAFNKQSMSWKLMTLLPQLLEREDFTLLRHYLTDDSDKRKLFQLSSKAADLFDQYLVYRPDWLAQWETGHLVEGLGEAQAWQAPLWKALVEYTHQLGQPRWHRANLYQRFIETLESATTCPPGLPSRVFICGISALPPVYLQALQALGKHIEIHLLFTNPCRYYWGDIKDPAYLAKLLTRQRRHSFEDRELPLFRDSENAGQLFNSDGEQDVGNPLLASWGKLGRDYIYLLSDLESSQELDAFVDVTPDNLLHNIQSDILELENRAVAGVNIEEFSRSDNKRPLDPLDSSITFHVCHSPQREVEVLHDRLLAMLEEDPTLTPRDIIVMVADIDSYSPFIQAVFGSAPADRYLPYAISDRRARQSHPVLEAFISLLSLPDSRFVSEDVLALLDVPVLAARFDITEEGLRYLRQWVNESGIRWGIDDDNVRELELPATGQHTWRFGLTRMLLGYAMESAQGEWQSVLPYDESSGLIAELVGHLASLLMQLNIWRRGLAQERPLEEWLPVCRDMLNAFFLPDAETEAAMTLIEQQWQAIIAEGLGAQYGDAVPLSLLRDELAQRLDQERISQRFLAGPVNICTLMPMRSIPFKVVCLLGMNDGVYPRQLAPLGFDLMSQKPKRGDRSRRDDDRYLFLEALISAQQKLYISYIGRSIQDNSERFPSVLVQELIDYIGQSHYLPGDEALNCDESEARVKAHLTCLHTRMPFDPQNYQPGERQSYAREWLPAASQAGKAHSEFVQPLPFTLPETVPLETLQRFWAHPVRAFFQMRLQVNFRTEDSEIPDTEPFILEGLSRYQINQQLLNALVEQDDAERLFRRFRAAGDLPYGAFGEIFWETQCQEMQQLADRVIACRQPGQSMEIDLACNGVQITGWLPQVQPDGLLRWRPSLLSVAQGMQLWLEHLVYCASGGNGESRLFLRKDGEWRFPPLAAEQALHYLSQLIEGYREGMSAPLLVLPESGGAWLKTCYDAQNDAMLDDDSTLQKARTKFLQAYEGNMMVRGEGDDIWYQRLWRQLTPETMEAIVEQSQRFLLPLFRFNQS
T1 sequence (P08394 whole entry): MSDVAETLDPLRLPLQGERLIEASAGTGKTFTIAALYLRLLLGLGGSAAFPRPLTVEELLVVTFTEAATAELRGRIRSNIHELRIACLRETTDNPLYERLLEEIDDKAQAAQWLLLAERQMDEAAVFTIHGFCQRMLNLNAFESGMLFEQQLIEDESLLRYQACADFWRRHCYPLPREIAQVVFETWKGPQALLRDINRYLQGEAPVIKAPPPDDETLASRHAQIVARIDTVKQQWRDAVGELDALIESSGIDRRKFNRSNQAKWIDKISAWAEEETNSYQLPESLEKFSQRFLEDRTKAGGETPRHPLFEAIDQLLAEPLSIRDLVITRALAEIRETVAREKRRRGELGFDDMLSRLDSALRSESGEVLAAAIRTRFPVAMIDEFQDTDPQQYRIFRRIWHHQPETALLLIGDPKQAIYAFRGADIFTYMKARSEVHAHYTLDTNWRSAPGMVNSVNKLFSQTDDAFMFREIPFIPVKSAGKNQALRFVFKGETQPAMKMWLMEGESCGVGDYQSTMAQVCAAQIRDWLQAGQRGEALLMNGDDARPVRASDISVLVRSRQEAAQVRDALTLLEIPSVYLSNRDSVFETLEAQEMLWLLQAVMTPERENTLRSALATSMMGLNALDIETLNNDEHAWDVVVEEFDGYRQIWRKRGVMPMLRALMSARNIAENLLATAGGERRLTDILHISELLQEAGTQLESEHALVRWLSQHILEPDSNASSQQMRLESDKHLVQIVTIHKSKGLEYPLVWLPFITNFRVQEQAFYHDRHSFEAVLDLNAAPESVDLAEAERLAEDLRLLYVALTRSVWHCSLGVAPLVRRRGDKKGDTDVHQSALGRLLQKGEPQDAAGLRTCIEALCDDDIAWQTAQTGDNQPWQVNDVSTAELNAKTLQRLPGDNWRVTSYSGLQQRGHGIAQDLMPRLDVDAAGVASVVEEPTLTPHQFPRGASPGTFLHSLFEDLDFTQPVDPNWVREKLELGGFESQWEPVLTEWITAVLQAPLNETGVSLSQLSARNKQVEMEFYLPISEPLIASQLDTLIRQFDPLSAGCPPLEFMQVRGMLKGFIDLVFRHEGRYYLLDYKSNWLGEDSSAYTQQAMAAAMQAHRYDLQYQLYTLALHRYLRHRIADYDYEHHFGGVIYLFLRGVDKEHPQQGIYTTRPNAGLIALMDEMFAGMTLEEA

SMILES: CCC(=O)NC(c1ccc(C)cc1)c1ccc2cccnc2c1O (stereo not drawn)
- IC50 [1]: 7.02 µM (active)
- AC50 [2]: 0.704 µM (active)
- AC50 [3]: 3.35 µM (active)
- IC50 [4]: > 119 µM (inactive)

SMILES: CCCC(=O)NC(c1ccc(Cl)cc1)c1ccc2cccnc2c1O (stereo not drawn)
- IC50 [1]: 4.23 µM (active)
- AC50 [2]: 0.937 µM (active)
- AC50 [3]: 4.04 µM (active)
- IC50 [4]: > 119 µM (inactive)
